Reference: the supplement of paper PMC10307832

Key:
Assay in all cases: relative viability (nuclei count vs DMSO), 5 days (fraction); higher = more cells survive
[1] = compound: C1=CC=C2C(=C1)N=C(S2)C(C#N)C3=NC(=NC=C3)NCCC4=CN=CC=C4 + CS(=O)(=O)N1CCN(Cc2cc3nc(-c4cccc5[nH]ncc45)nc(N4CCOCC4)c3s2)CC1 [Pictilisib] (partner 1 µM)
Summary of the method: (§1)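 Lung cancer cell lines in 1536-well plates were dosed by pin tool the day after seeding, either with one drug alone or with a fixed anchor-drug dose plus five library-drug doses (not always all listed) in √10 steps. After 5 days, cells were fixed and their nuclei stained in one step (final 0.05% Triton X-100, 1% formaldehyde, 1 ug/ml Hoechst), then counted on 4× images. Relative viability is the nuclei count in treated wells divided by that in vehicle wells. Values are medians of duplicate plates.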

NVP-TAE684 + Palbociclib = compound: COc1cc(N2CCC(N3CCN(C)CC3)CC2)ccc1Nc1ncc(Cl)c(Nc2ccccc2S(=O)(=O)C(C)C)n1 [NVP-TAE684] + CC(=O)c1c(C)c2cnc(Nc3ccc(N4CCNCC4)cn3)nc2n(C2CCCC2)c1=O [Palbociclib] (partner 0.5 µM)
Summary of the method: as §1

NVP-TAE684 + Alpelisib = compound: COc1cc(N2CCC(N3CCN(C)CC3)CC2)ccc1Nc1ncc(Cl)c(Nc2ccccc2S(=O)(=O)C(C)C)n1 [NVP-TAE684] + Cc1nc(NC(=O)N2CCC[C@H]2C(N)=O)sc1-c1ccnc(C(C)(C)C(F)(F)F)c1 [Alpelisib] (partner 2 µM)
Summary of the method: as §1

Vandetanib + Crizotinib = compound: COc1cc2/c(=N/c3ccc(Br)cc3F)nc[nH]c2cc1OCC1CCN(C)CC1 [Vandetanib] + C[C@@H](Oc1cc(-c2cnn(C3CCNCC3)c2)cnc1N)c1c(Cl)ccc(F)c1Cl [Crizotinib] (partner 1 µM)
Summary of the method: as §1

UMC-11 was tested, and the relative viability ([1]; first compound 0.005 µM) was 0.717, the relative viability ([1]; first compound 0.01581 µM) was 0.748 and the relative viability ([1]; first compound 0.05 µM) was 0.689. For the same cell line, the relative viability ([1]; first compound 0.1581 µM) was 0.877, the relative viability ([1]; first compound 0.5 µM) was 0.777 and the relative viability (NVP-TAE684 + Palbociclib; first compound 0.2 µM) was 0.344. For the same cell line, the relative viability (NVP-TAE684 + Palbociclib; first compound 0.6325 µM) was 0.326, the relative viability (NVP-TAE684 + Palbociclib; first compound 2 µM) was 0.26 and the relative viability (NVP-TAE684 + Alpelisib; first compound 0.2 µM) was 0.961. It also gave a relative viability (NVP-TAE684 + Alpelisib; first compound 0.6325 µM) of 0.915, a relative viability (NVP-TAE684 + Alpelisib; first compound 2 µM) of 0.213 and a relative viability (Vandetanib + Crizotinib; first compound 0.02 µM) of 0.588. It also gave a relative viability (Vandetanib + Crizotinib; first compound 0.06325 µM) of 0.654, a relative viability (Vandetanib + Crizotinib; first compound 0.2 µM) of 0.632 and a relative viability (Vandetanib + Crizotinib; first compound 0.6325 µM) of 0.494. It also gave a relative viability (Vandetanib + Crizotinib; first compound 2 µM) of 0.61.
